# Test results taken from patent publication US12599136B2, “Substituted isophthalic acid diamides and their use as herbicides” (Bayer Aktiengesellschaft, priority 2020, dated 2026).
# Columns and labels:
# Format in all cases: in vivo
# [1] = test system: Pharbitis purpurea; assay: Post-emergence herbicidal action against PHBPU; settings: 80 g/ha, visual assessment about 3 weeks after treatment
# Outline: (§1)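 Sandy loam, greenhouse; treatment 2–3 weeks after sowing, one-leaf stage. Aqueous suspension or emulsion from WP/EC sprayed on foliage (600–800 l/ha, 0.2% wetting agent). Readout: visual % action, ~3 weeks.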
# [2] = test system: Matricaria inodora; assay: Post-emergence herbicidal action against MATIN; settings: for Post-emergence action against MATIN in %: visual assessment about 3 weeks after treatment
# Outline: as §1
# [3] = test system: Amaranthus retroflexus; assay: Pre-emergence herbicidal action against AMARE; settings: for Pre-emergence action against AMARE: visual score after 3 weeks vs untreated controls; for Herbicidal action against AMARE: comparative experiment, pre-emergence
# Outline: (§2)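 Seeds sown in sandy loam, soil-covered; compound sprayed on soil surface pre-emergence. Application: WP/EC, 600–800 l/ha, 0.2% wetting agent. Readout: visual % damage at 3 weeks.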
# [4] = test system: Lolium rigidum; assay: Post-emergence herbicidal action against LOLRI
# Description: (§3) Seeds of monocotyledonous and dicotyledonous weed and crop plants are laid out in sandy loam soil in wood-fiber pots, covered with soil and cultivated in a greenhouse under good growth conditions. 2 to 3 weeks after sowing, the test plants are treated at the one-leaf stage. The compounds of the invention, formulated in the form of wettable powders (WP) or as emulsion concentrates (EC), are then sprayed onto the green parts of the plants in the form of an aqueous suspension or emulsion at a water application rate equivalent to 600 to 800 l/ha, with addition of 0.2% wetting agent. After the test plants have been left to stand in the greenhouse under optimal growth conditions for about 3 weeks, the action of the preparations is assessed visually in comparison to untreated controls (herbicidal action in percent (%): 100% activity=the plants have died, 0% activity=like control plants). […] The tables below illustrate, in an illustrative manner, the post-emergence herbicidal action of the compounds of the invention, the herbicidal activity being stated in percent.
# [5] = test system: Cyperus esculentus; assay: Pre-emergence herbicidal action against CYPES; settings: for Pre-emergence action against CYPES: visual score after 3 weeks vs untreated controls; for Herbicidal action against CYPES: comparative experiment, pre-emergence
# Outline: as §2
# [6] = test system: Polygonum convolvulus; assay: Post-emergence herbicidal action against POLCO; settings: 80 g/ha, visual assessment about 3 weeks after treatment
# Outline: as §1
# [7] = test system: Veronica persica; assay: Pre-emergence herbicidal action against VERPE
# Outline: as §2
# [8] = test system: Avena fatua; assay: Post-emergence herbicidal action against AVEFA; settings: for Post-emergence action against AVEFA in %: visual assessment about 3 weeks after treatment
# Outline: as §1
# [9] = test system: Hordeum murinum; assay: Post-emergence herbicidal action against HORMU
# Outline: as §1
# [10] = test system: Alopecurus myosuroides; assay: Post-emergence herbicidal action against ALOMY
# Outline: as §1
# [11] = test system: Alopecurus myosuroides; assay: Pre-emergence herbicidal action against ALOMY; settings: for Pre-emergence action against ALOMY: visual score after 3 weeks vs untreated controls
# Outline: as §2
# [12] = test system: Lolium rigidum; assay: Pre-emergence herbicidal action against LOLRI
# Outline: as §2
# [13] = test system: Setaria viridis; assay: Pre-emergence herbicidal action against SETVI; settings: for Herbicidal action against SETVI: comparative experiment
# Outline: as §2
# [14] = test system: Echinochloa crus-galli; assay: Post-emergence herbicidal action against ECHCG; settings: visual assessment about 3 weeks after treatment
# Outline: as §1
# [15] = test system: Abutilon theophrasti; assay: Pre-emergence herbicidal action against ABUTH; settings: for Pre-emergence action against ABUTH: visual score after 3 weeks vs untreated controls
# Outline: as §2
# [16] = test system: Veronica persica; assay: Post-emergence herbicidal action against VERPE; settings: visual assessment about 3 weeks after treatment
# Outline: as §1
# [17] = test system: Amaranthus retroflexus; assay: Post-emergence herbicidal action against AMARE; settings: visual assessment about 3 weeks after treatment
# Outline: as §1
# [18] = test system: Echinochloa crus-galli; assay: Pre-emergence herbicidal action against ECHCG; settings: for Pre-emergence action against ECHCG: visual score after 3 weeks vs untreated controls; for Herbicidal action against ECHCG: comparative experiment, pre-emergence
# Outline: as §2
# [19] = test system: Avena fatua; assay: Pre-emergence herbicidal action against AVEFA; settings: for Pre-emergence action against AVEFA: visual score after 3 weeks vs untreated controls
# Outline: as §2
# [20] = test system: Stellaria media; assay: Pre-emergence herbicidal action against STEME
# Outline: as §2
# [21] = test system: Hordeum murinum; assay: Pre-emergence herbicidal action against HORMU; settings: visual score after 3 weeks vs untreated controls
# Outline: as §2
# [22] = test system: Polygonum convolvulus; assay: Pre-emergence herbicidal action against POLCO; settings: 320 g/ha
# Outline: as §2
# [23] = test system: Cyperus esculentus; assay: Post-emergence herbicidal action against CYPES; settings: visual assessment about 3 weeks after treatment
# Description: as §3
# [24] = test system: Abutilon theophrasti; assay: Post-emergence herbicidal action against ABUTH
# Outline: as §1
# [25] = test system: Stellaria media; assay: Post-emergence herbicidal action against STEME; settings: for Post-emergence action against STEME in %: visual assessment about 3 weeks after treatment
# Outline: as §1
# [26] = test system: Setaria viridis; assay: Post-emergence herbicidal action against SETVI; settings: for Post-emergence action against SETVI in %: visual assessment about 3 weeks after treatment
# Outline: as §1
# [27] = test system: Viola tricolor; assay: Pre-emergence herbicidal action against VIOTR; settings: 320 g/ha
# Outline: as §2
# [28] = test system: Viola tricolor; assay: Post-emergence herbicidal action against VIOTR
# Outline: as §1
# [29] = test system: Matricaria inodora; assay: Pre-emergence herbicidal action against MATIN; settings: for Pre-emergence action against MATIN: visual score after 3 weeks vs untreated controls
# Outline: as §2
# [30] = comparative experiment, 5 g a.i./ha
# [31] = comparative experiment, pre-emergence, 20 g a.i./ha
# [32] = comparative experiment, pre-emergence, 80 g a.i./ha
compound,measurement,setting,value
CN(C)C(=O)c1c(C(F)(F)F)ccc(C(=O)Nc2nnnn2C)c1Cl [Example 1-123],Post-emergence action against PHBPU in %,[1],100%
same,Post-emergence action against MATIN in %,[2]; 5 g/ha,80%
same,Post-emergence action against MATIN in %,[2]; 20 g/ha,80%
same,Post-emergence action against MATIN in %,[2]; 80 g/ha,100%
same,Herbicidal action against MATIN,[2]; [30],80
same,Pre-emergence action against AMARE,[3]; 20 g/ha,90%
same,Pre-emergence action against AMARE,[3]; 80 g/ha,100%
same,Pre-emergence action against AMARE,[3]; 320 g/ha,100%
same,Herbicidal action against AMARE,[3]; 20 g a.i./ha,90
same,Herbicidal action against AMARE,[3]; 80 g a.i./ha,100
same,Post-emergence action against LOLRI in %,[4]; 20 g/ha,80%
same,Post-emergence action against LOLRI in %,[4]; 80 g/ha,90%
same,Pre-emergence action against CYPES,[5]; 20 g/ha,80%
same,Pre-emergence action against CYPES,[5]; 80 g/ha,100%
same,Pre-emergence action against CYPES,[5]; 320 g/ha,100%
same,Herbicidal action against CYPES,[5]; 20 g a.i./ha,80
same,Herbicidal action against CYPES,[5]; 80 g a.i./ha,100
same,Post-emergence action against POLCO in %,[6],90%
same,Pre-emergence action against VERPE,[7]; 80 g/ha,80%
same,Pre-emergence action against VERPE,[7]; 320 g/ha,90%
same,Post-emergence action against AVEFA in %,[8]; 5 g/ha,80%
same,Post-emergence action against AVEFA in %,[8]; 20 g/ha,90%
same,Post-emergence action against AVEFA in %,[8]; 80 g/ha,100%
same,Herbicidal action against AVEFA,[8]; [30],80
same,Post-emergence action against HORMU in %,[9]; 5 g/ha,80%
same,Post-emergence action against HORMU in %,[9]; 20 g/ha,80%
same,Post-emergence action against HORMU in %,[9]; 80 g/ha,100%
same,Post-emergence action against ALOMY,[10]; 5 g/ha,100%
same,Post-emergence action against ALOMY,[10]; 20 g/ha,100%
same,Post-emergence action against ALOMY,[10]; 80 g/ha,100%
same,Herbicidal action against ALOMY,[10]; [30],100
same,Pre-emergence action against ALOMY,[11]; 80 g/ha,80%
same,Pre-emergence action against ALOMY,[11]; 320 g/ha,100%
same,Herbicidal action against ALOMY,[11]; [31],70
same,Pre-emergence action against LOLRI,[12]; 80 g/ha,80%
same,Pre-emergence action against LOLRI,[12]; 320 g/ha,100%
same,Pre-emergence action against SETVI,[13]; 20 g/ha,90%
same,Pre-emergence action against SETVI,[13]; 80 g/ha,100%
same,Pre-emergence action against SETVI,[13]; 320 g/ha,100%
same,Herbicidal action against SETVI,[13]; 20 g a.i./ha,90
same,Herbicidal action against SETVI,[13]; 80 g a.i./ha,100
same,Post-emergence action against ECHCG in %,[14]; 5 g/ha,100%
same,Post-emergence action against ECHCG in %,[14]; 20 g/ha,100%
same,Post-emergence action against ECHCG in %,[14]; 80 g/ha,100%
same,Pre-emergence action against ABUTH,[15]; 20 g/ha,80%
same,Pre-emergence action against ABUTH,[15]; 80 g/ha,100%
same,Pre-emergence action against ABUTH,[15]; Dosage column 320 g/ha (heading prints 3200 g/ha),100%
same,Herbicidal action against ABUTH,[15]; [32],100
same,Post-emergence action against VERPE in %,[16]; 5 g/ha,80%
same,Post-emergence action against VERPE in %,[16]; 20 g/ha,80%
same,Post-emergence action against VERPE in %,[16]; 80 g/ha,100%
same,Post-emergence action against AMARE in %,[17]; 5 g/ha,100%
same,Post-emergence action against AMARE in %,[17]; 20 g/ha,100%
same,Post-emergence action against AMARE in %,[17]; 80 g/ha,100%
same,Pre-emergence action against ECHCG,[18]; 20 g/ha,90%
same,Pre-emergence action against ECHCG,[18]; 80 g/ha,100%
same,Pre-emergence action against ECHCG,[18]; 320 g/ha,100%
same,Herbicidal action against ECHCG,[18]; 20 g a.i./ha,90
same,Herbicidal action against ECHCG,[18]; 80 g a.i./ha,100
same,Pre-emergence action against AVEFA,[19]; 80 g/ha,90%
same,Pre-emergence action against AVEFA,[19]; 320 g/ha,100%
same,Herbicidal action against AVEFA,[19]; [32],90
same,Pre-emergence action against STEME,[20]; 20 g/ha,90%
same,Pre-emergence action against STEME,[20]; 80 g/ha,90%
same,Pre-emergence action against STEME,[20]; 320 g/ha,90%
same,Pre-emergence action against HORMU,[21]; 80 g/ha,90%
same,Pre-emergence action against HORMU,[21]; 320 g/ha,100%
same,Pre-emergence action against POLCO,[22],90%
same,Post-emergence action against CYPES in %,[23]; 5 g/ha,80%
same,Post-emergence action against CYPES in %,[23]; 20 g/ha,90%
same,Post-emergence action against CYPES in %,[23]; 80 g/ha,90%
same,Post-emergence action against ABUTH,[24]; 5 g/ha,100%
same,Post-emergence action against ABUTH,[24]; 20 g/ha,100%
same,Post-emergence action against ABUTH,[24]; 80 g/ha,100%
same,Herbicidal action against ABUTH,[24]; [30],100
same,Post-emergence action against STEME in %,[25]; 5 g/ha,100%
same,Post-emergence action against STEME in %,[25]; 20 g/ha,100%
same,Post-emergence action against STEME in %,[25]; 80 g/ha,100%
same,Herbicidal action against STEME,[25]; [30],100
same,Post-emergence action against SETVI in %,[26]; 5 g/ha,100%
same,Post-emergence action against SETVI in %,[26]; 20 g/ha,100%
same,Post-emergence action against SETVI in %,[26]; 80 g/ha,100%
same,Herbicidal action against SETVI,[26]; [30],100
same,Pre-emergence action against VIOTR,[27],90%
same,Post-emergence action against VIOTR in %,[28]; 5 g/ha,80%
same,Post-emergence action against VIOTR in %,[28]; 20 g/ha,100%
same,Post-emergence action against VIOTR in %,[28]; 80 g/ha,100%
same,Pre-emergence action against MATIN,[29]; 80 g/ha,90%
same,Pre-emergence action against MATIN,[29]; 320 g/ha,90%
same,Herbicidal action against MATIN,[29]; [31],70
